Data taken from patent US20170226503A1, “Methods for Sequential Screening with Co-Culture Based Detection of Metagenomic Elements Conferring Heterologous Metabolite Secretion” (MetaMixis Biologics, Inc., priority 2014, published 2017).

System: MIE p10c20
Experiment: Validation of MIE p10c20 from retrofitted metagenomic library (fluorescence)
Type: cell-based
Conditions: 1 mM
Description: A metagenomic DNA library was “retroffited” as described herein and shown in FIG. 15 to identify a metabolite induced element (MIE). In FIG. 16 fluoresence plots are shown for a retroffited metagenomic library assayed for fluorescence emitted by the fluorescent marker. […] Induction was by a pool of pCoumaric acid, Vanillic acid and Vanillin. The circled data point that represents a fosmid clone harboring a candidate MIE (p10c20) which was selected for further investigation.

For `O=C(O)/C=C/c1ccc(O)cc1` [pCoumaric acid], the “responsiveness of MIE p10c20” value was “most responsive”.
